Results published in publication PMC8457735, “Synthesis, Kinetics, Binding Conformations and Structure-activity Relationship of Potent Tyrosinase Inhibitors: Aralkylated 2-aminothiazole-ethyltriazole Hybrids” (Iranian Journal of Pharmaceutical Research : IJPR, 2021).
Entries after “also recorded” stand apart in the source; their conditions may differ.

What was measured:
mushroom tyrosinase = mushroom tyrosinase (Agaricus bisporus, UniProt C7FF04); assay: Kinetic analysis of tyrosinase inhibition (Lineweaver-Burk and secondary plots); assay type: biochemical
Procedure: A series of experiments were performed to determine the inhibition kinetics of 7g, following the already reported methods ([54]). The concentrations for 7g were 0.00, 0.0018, 0.0036 and 0.0072 µM. Substrate L-DOPA concentrations were between 0.0625 to 2 mM in all kinetic studies. Pre-incubation and measurement time was the same as discussed in the mushroom tyrosinase inhibition assay protocol. Maximal initial velocity was determined from the initial linear portion of absorbance up to five minutes after the addition of enzyme at the 30s interval. The inhibition type of the enzyme was assayed by Lineweaver-Burk plots of the inverse of velocities (1/V) versus the inverse of substrate concentration 1/[L-DOPA] mM^-1.

[1] = Free radical scavenging assay (DPPH); conditions: compound concentration 100 µg/mL
Procedure: Radical scavenging activity was determined by modifying the already reported method by 2, 2-diphenyl-1 picrylhydrazyl (DPPH) assay ([55]). The assay solution consisted of 100 µL of DPPH (150 µM), 20 µL of increasing concentration of test compounds, and the volume was adjusted to 200 µL in each well with CH3OH. After that, the assay reaction was then incubated for 30 minutes at room temperature. Ascorbic acid (Vitamin C) was used as a reference inhibitor. The assay measurements were carried out using a microplate reader (OPTI Max, Tunable) at 517 nm. The reaction rates were compared, and the percent inhibition caused by tested inhibitors was calculated. All experiments were repeated thrice.

Sequence of mushroom tyrosinase (C7FF04 1-392): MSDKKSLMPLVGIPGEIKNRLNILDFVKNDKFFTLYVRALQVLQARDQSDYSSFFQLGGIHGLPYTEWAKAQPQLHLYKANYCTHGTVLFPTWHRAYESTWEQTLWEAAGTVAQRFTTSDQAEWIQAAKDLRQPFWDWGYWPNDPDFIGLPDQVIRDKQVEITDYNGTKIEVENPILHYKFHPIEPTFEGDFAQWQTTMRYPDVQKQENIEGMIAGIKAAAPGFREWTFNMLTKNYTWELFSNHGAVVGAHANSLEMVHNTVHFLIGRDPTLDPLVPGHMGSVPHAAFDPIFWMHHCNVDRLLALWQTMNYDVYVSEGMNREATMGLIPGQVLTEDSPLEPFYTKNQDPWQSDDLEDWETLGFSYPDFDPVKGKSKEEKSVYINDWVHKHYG

## CCn1c(Cc2csc(N)n2)nnc1SCc1ccc(Cl)cc1Cl [Compound 7g, 4-({5-[(2,4-Dichlorobenzyl)sulfanyl]-4-ethyl-4H-1,2,4-triazol-3-yl}methyl)-1,3-thiazol-2-amine]
Mushroom tyrosinase; L-DOPA activity in presence of 0.0018 µM 7g
  Vmax: 6.676 × 10^-5 ΔA/s
Mushroom tyrosinase; L-DOPA activity in presence of 0.0036 µM 7g
  Vmax: 4.712 × 10^-5 ΔA/s
Mushroom tyrosinase; L-DOPA activity in presence of 0.0072 µM 7g
  Vmax: 4.223 × 10^-5 ΔA/s
Mushroom tyrosinase; Lineweaver-Burk plots, substrate L-DOPA 0.0625-2 mM
  Inhibition Type: non-competitively; also recorded: Non-Competitive
[1]
  radical scavenging activity: 24%

## CCn1c(Cc2csc(N)n2)nnc1SCc1ccc(Cl)c(Cl)c1 [Compound 7h, 4-({5-[(3,4-Dichlorobenzyl)sulfanyl]-4-ethyl-4H-1,2,4-triazol-3-yl}methyl)-1,3-thiazol-2-amine]
[1]
  radical scavenging activity: 21%

## CCn1c(Cc2csc(N)n2)nnc1SCc1ccccc1Br [Compound 7i, 4-({5-[(2-Bromobenzyl)sulfanyl]-4-ethyl-4H-1,2,4-triazol-3-yl}methyl)-1,3-thiazol-2-amine]
other
  melting point: 108 to 109 °C

## CCn1c(Cc2csc(N)n2)nnc1SCc1ccc(Br)cc1 [Compound 7k, -({5-[(4-Bromobenzyl)sulfanyl]-4-ethyl-4H-1,2,4-triazol-3-yl}methyl)-1,3-thiazol-2-amine]
other
  melting point: 150 to 151 °C
